We go through 2 compounds from patent US20250312468A1, “ANTI-PROTAC ANTIBODIES AND COMPLEXES” (Merck Patent GmbH, priority 2021, published 2025).

The target of one series is MIC1. The experiment in a line: SPR binding of PROTACs to immobilized antibody MIC1. Conditions: binding of PROTACs to MIC1, steady-state model. The method, then: The binding affinities of hit antibodies MIC1 and MIC2 to a diverse set of VH032-based PROTACs (FIGS. 8A-8B) was determined by surface plasmon resonance (SPR) in a Biacore T200 instrument. The running buffer consist of PBS, 0.05% Tween-20, 2% DMSO and temperature and flow rate were set to 30° C. and 30 μL/min, respectively. The assay setup is depicted exemplarily in FIG. 7A. CM5 sensor chips were coated with antibody (=ligand; 2500 RU) using standard EDC/NHS chemistry. PROTACs (=analytes) were serially diluted (1 μM-1.9 nM) in running buffer, injected to the instrument in consecutive runs and were captured by the antibody resulting in an increase of the corresponding SPR response. After the association step (300 s), running buffer was injected for 600 s and the PROTAC dissociated from the antibody leading to signal decrease. After each run, residual bound PROTAC was removed from the immobilized antibody by injection of 10 mM glycine/HCl, pH 1.5 for 2×30 s regenerating the antibody for the next association and dissociation cycle. To compensate for matrix effects, the measured SPR response signal was subtracted by the analyte response to an inactivated (EDC/NHS, ethanol amine) reference surface omitting the ligand. Furthermore, a DMSO solvent correction was performed and analyte response was subtracted by the running buffer signal. […]
On the technique in general: In SPR one partner is held on a chip, and binding of the other changes the refractive index at the surface.

The conditions of series [1]: mouse, in vivo. The method, then: After shaking/vortexing for 1 min, samples were filtered, (Captiva filtration on polypropylene filter, 0.45 μm pore size) and 120 μL of methanol:water (1:1, v/v) was added to the filtrate and stored at 4° C. until analysis and put in the autosampler before injection. The analysis was carried out on a LC-MS/MS system consisting of an UPLC coupled to a QTRAP 6500+ (Sciex) mass spectrometer. Mobile phase A was water with 0.1% formic acid and mobile phase B was methanol with 0.1% formic acid. […] The chromatography was performed on a Poroshell 120 EC-C18 column, 2.7 μm particles, 3×50 mm, from Agilent Technologies. […] The calibration curve for quantitation was based on standards ranging from 0.5 (Lower Limit of Quantitation) to 10000 (Upper Limit of Quantitation) ng/ml, with 5 calibration points minimum and minimum 75% of calibration standards to be within […] of their nominal values. The total antibody concentration was determined by ligand binding assay (LBA) based on the Meso Scale Diagnostics technology (MSD, LLC., Rockville, MD). […] After a final washing step, 150 μL of 2×MSD Read Buffer T with surfactant (MSD, #R92TC) was added to each well and plates were read on a MESO Quickplex SQ120 plate reader (MSD). […] The lower limit of quantification (LLOQ) was 50 ng/ml.

The test system of another series is MV411 cells. The experiment in a line: CellTiter-Glo cell viability assay (VHH-based PAX). To be noted: MV411, PROTAC alone. Also on record: species or system human. As to the method: Several cell viability experiments were performed following the procedure described below: Cells were seeded in different media into white cell culture-treated flat and clear bottom multiwell plates followed by overnight incubation in a humid chamber at 37° C. and 5% CO2. Complexation was performed as described in chapter 7.4.
The solutions were added to the cells based on the antibody concentration using nanodrop dispension using a Tecan D300e Digital Dispenser and all wells were normalized to the same volume using 0.3% TW20 in PBS pH 7.4 and DMSO to a final solvent concentration of 0.05% DMSO and 0.003% TW20. Incubation was performed at 37° C. at 5% or 10% CO2 dependent on the medium. The assay was developed after 3 days if not otherwise stated using CellTiter-Glo Luminescent Cell Viability Assay as described in the manufacturer's protocol. In brief, the plates were equilibrated to room temperature for 30 minutes. 100 mL CellTiter-Glo Buffer were added to the CellTiter-Glo Substrate Flask and mixed well. 30 μL of the reagent was transferred to each well. After incubation for 3 minutes at room temperature while shaking at 550 rpm, the plate was incubated for another 10 minutes at room temperature. The luminescence was read on an Envision reader from Perkin Elmer. […]
On the technique in general: Cellular ATP, detected with luciferase, serves as a proxy for viable cell number.

Another series deals with MDAMB468 cells. The experiment in a line: CellTiter-Glo cell viability assay (MIC2-based PAX). To be noted: MDAMB468, complexes at 50% (1:1) loading, three independent experiments. As to the method:
2000 cells per well were seeded into white-opaque 384-well plates followed by overnight incubation in a humid chamber at 37° C. and 5% CO2. […] The assay was developed after 3 days if not otherwise stated using CellTiter-Glo Luminescent Cell Viability Assay as described in the manufacturer's protocol. In brief, the plates were equilibrated to room temperature for 30 minutes. 100 mL CellTiter-Glo Buffer were added to the CellTiter-Glo Substrate Flask and mixed well. 30 μL of the reagent was transferred to each well. After incubation for 3 minutes at room temperature while shaking at 550 rpm, the plate was incubated for another 10 minutes at room temperature. The luminescence was read on an Envision reader. The evaluation was performed using GraphPad Prism 8 by normalization of cells treated with sample to untreated cells. The data were fitted with 4 point logistic curve to determine the IC50 value.

A short description of series [2]: Storage stability of antibody-PROTAC complexes (DLS, SE-HPLC, visible changes). The class given is physicochemical. To be noted: no storage time/temperature printed. As to the method:
Storage stability of antibody-PROTAC complexes was assessed after complexation (6 mg/ml, 650 rpm, 3 h, rt) by incubation in the fridge at 4° C. over 96 h as well as snap-freezing the complexes and storage at −80° C. for 24 h or at −20° C. at 96 h. Subsequently the samples were checked for visible changes, the polydispersity was assessed using DLS measurements and the loading was measured via SE-HPLC (Table 6). Samples with polydispersity up to 15% are considered monodisperse.

What is called Kd is the concentration at which binding is half-saturated. Higher therefore signals lower affinity. Compound `Cc1ncsc1-c1ccc([C@H](C)NC(=O)[C@@H]2C[C@@H](O)CN2C(=O)[C@@H](NC(=O)COCCCOCCNC(=O)C[C@@H]2N=C(c3ccc(Cl)cc3)c3c(sc(C)c3C)-n3c(C)nnc32)C(C)(C)C)cc1` [ARV771] had a Kd at MIC1 of 6.5 nM.

What is called IC50 is the concentration at which inhibition is half-maximal. For `Cc1ncsc1-c1ccc(CNC(=O)[C@@H]2C[C@@H](O)CN2C(=O)[C@@H](NC(=O)CCCCCCCCCCNC(=O)c2cc3c(cc2CS(C)(=O)=O)-c2cn(C)c(=O)c4[nH]cc(c24)CN3c2ncc(F)cc2F)C(C)(C)C)cc1` [GNE987], the “time after which PROTAC GNE987 concentration fell below LLOQ” value in series [1] stood at 25 h. Also, in series [1] (iv, 0.4 mg/kg), the “half-life of the PROTAC GNE987” value came out at 5.8 h. Further, the IC50 with MV411 cells is under 0.045 nM; with MDAMB468 cells, 0.79 nM. The Visible evaluation result in series [2] was “precipitation”.
